Reference: patent US20240325383A1, “Small Molecule Targeting of BRD4 for Treatment of COVID-19” (Board of Regents, The University of Texas System, priority 2023, published 2024)
Entries after “also recorded” stand apart in the source; their conditions may differ.

Key:
[1] = system: CXCL10 expression; type: cell-based, human
[2] = system: rSARS-COV-2mNG; type: cell-based, SARS-COV-2
[3] = cited from earlier work

In the case of `COc1cc(OC)c2c(=O)cc(-c3cc(C)c(OCCCN4CCN(C)CC4)c(C)c3)oc2c1` [ZL0969], the CXCL10 expression [1] is reported as “reduces expression levels of CXCL10; also recorded: reduce CXCL10 expression” and the “virus titer (FFA)” value [2] is reported as “significantly reduce virus titer”.

In the case of `CCC(=O)O[C@]1(C(=O)SCF)[C@H](C)C[C@H]2[C@@H]3C[C@H](F)C4=CC(=O)C=C[C@]4(C)[C@@]3(F)[C@@H](O)C[C@@]21C` [Fluticasone propionate], the “solubility in 95% ethanol” value ([3]; 95% ethanol) is given as “slightly soluble”, the “solubility in dimethyl sulfoxide” value ([3]; dimethyl sulfoxide) is given as “freely soluble” and the solubility in dimethylformamide ([3]; dimethylformamide) is given as “freely soluble”. For the same compound, the solubility in methanol ([3]; methanol) was “slightly soluble” and the solubility in water ([3]; water) was “practically insoluble”.
